{"source": "patent US7488491B2", "about": "“Use of glycosylceramides as adjuvants for vaccines against infections and cancer” (New York University, priority 2001, dated 2009)", "key": {"Vα14 NKT cells": {"tested_on": "Vα14 NKT cells", "settings": "mice; cited from earlier work"}, "P. yoelii sporozoites [1]": {"tested_on": "P. yoelii sporozoites", "assay": "Anti-sporozoite antibody titers by indirect immunofluorescence assay (IFA)", "format": "in vivo, Plasmodium yoelii", "settings": "γ-spz-immunized BALB/c mice", "procedure": "Sera of immunized mice were obtained just before their challenge with sporozoites, and their Ab titers were measured using P. yoelii sporozoites in an indirect immunofluorescence assay (IFA). In brief, P. yoelii sporozoites were placed on multispot glass slides, and air-dried. After 1 hour of incubation with the sera, diluted in PBS containing 1% BSA, the slides were washed with PBS and incubated 1 hour with FITC- labelled affinity purified goat anti-mouse Ab (Kirkegaard & Perry Laboratories, Gaithersburg, Md.). The slides were then washed and mounted in PBS containing 50% (v/v) glycerol and 1% (w/v) Evans blue to reduce bleaching. The highest serum dilution resulting in fluorescence of the sporozoites was considered to be the IFA titer. Measurement of Ab Isotype Level by ELISA.\n(§1) The present inventors also determined the titers of anti-sporozoite antibodies using an immunofluorescence assay(IFA) of air-dried P. yoelii sporozoites, as well as the titers of antibody against the circumsporozoite (CS) protein, the major surface antigen of sporozoites, using ELISA. The antibody titers were identical among the groups of γ-spz-immunized mice regardless of whether or not they received α-GalCer (FIG. 1A)."}, "[2]": {"tested_on": "circumsporozoite (CS) protein", "assay": "Anti-CS antibody titers and isotypes by ELISA", "format": "in vivo, P. yoelii", "settings": "γ-spz-immunized mice", "procedure": "Sera of immunized mice were obtained prior to their challenge with sporozoites, and the levels of CS-specific IgM, IgG1, IgG2a, and IgE isotypes were measured using the Mouse Hybridoma Subtyping Kit (Boehringer Mannheim, Mannheim, Germany). Briefly, plates were coated with […] of B cell epitope (QGPGAP)2 (Charoenvit et al., J. Immunol., 146: 1020-1025, 1991) of the P. yoelii CS protein, blocked with PBS containing 1% BSA, and incubated for 1 hour with 1:5 dilution of sera from immunized and non-immunized mice. The plates were then washed and anti-mouse IgM, IgG1a, IgG2a (Boehringer Mannheim) and IgE (Southern Biotechnology Associates, Inc., Birmingham, Ala.) conjugated to peroxidase were added, followed by incubation with the substratre 2,2-Azino-di-[3-ethylbenzthiazoline sulfonate (6)], according the manufacture's instruction.\nas §1"}, "[3]": {"tested_on": "nucleoprotein (NP) of the influenza A virus", "assay": "CD8+ T cell anti-influenza response after recombinant Sindbis virus expressing NP epitope", "format": "in vivo", "settings": "suboptimal dose (10^5 p.f.u.) recombinant Sindbis virus expressing epitope TYQRTRALV, with α-GalCer", "description": "In yet another specific embodiment, an antigen of the invention is influenza A virus-specific."}, "B 16-bearing mice": {"tested_on": "B 16-bearing mice", "settings": "cited from earlier work"}, "[4]": {"settings": "independently of dosage; cited from earlier work"}, "[5]": {"settings": "independently of dosage; cited from earlier work", "remark": "listed apart in the source"}, "P. yoeli": {"tested_on": "P. yoeli", "settings": "α-GalCer alone, cited from earlier work"}, "P. berghei": {"tested_on": "P. berghei", "settings": "mice; α-GalCer alone; cited from earlier work"}, "[6]": {"settings": "mouse, in vivo; cited from earlier work"}, "[7]": {"settings": "in vivo; cited from earlier work"}, "[8]": {"tested_on": "p18-specific CD8+ T cells (p18 protein of HIV)", "assay": "ELISPOT assay of HIV p18-specific CD8+ T cells from immunized mice", "settings": "mice immunized with CD8+ T cell epitope […] of p18 of HIV", "method": "An ELISPOT assay was performed to determine the number of CS-specific CD4+ and CD8+ T cells, producing IFN-γ or IL-4 (Miyahira et al., J. Immunol. Methods, 181: 45-54, 1995). Briefly, 96 well nitrocellulose plates (Millipore, Bedford, Mass.) were coated with anti-mouse IFN-γ monoclonal antibodies (mAb), or anti-mouse IL-4 mAb. After overnight incubation at room temperature, the wells were washed repeatedly and blocked with culture medium for 1 hour at 37° C. […] After irradiating the peptide-pulsed target cells, the cells were added to the ELISPOT wells. Untreated target cells were used as negative controls. Serially diluted lymphocytes isolated from the spleen or lymph nodes of immunized mice were co-cultured with 1.5×10^5 target cells in the ELISPOT wells. After incubating the plates 24 h for IFN-γ detection or 48 h for IL-4 detection at 37° C. and 5% CO2, the plates were treated as previously described (Rodrigues et al., J. Immunol., 158: 1268-1274, 1997), and the number of spots corresponding to IFN-γ and IL-4 secreting cells determined."}, "P. yoelii sporozoites [9]": {"tested_on": "P. yoelii sporozoites", "assay": "Parasite rRNA in the liver after live sporozoite challenge of immunized mice (real-time RT-PCR)"}, "P. yoelii sporozoites [10]": {"tested_on": "P. yoelii sporozoites", "assay": "Protection against blood infection (parasitemia in thin blood smears) after challenge with 50 viable sporozoites", "from_the_text": "To further assess the adjuvant activity of α-GalCer co-administered with vaccines, parasitemia (i.e., the presence of parasites in the blood) was monitored daily by microscopic examination of thin blood smears. Briefly, BALB/c mice were immunized either intravenously with 1×10^4 γ-spz or subcutaneously with 1×10^7 p.f.u. of AdPyCS, doses which otherwise fail to confer protection against malaria, with or without α-GalCer treatment. Two weeks later, all mice were challenged with 50 viable P. yoelii sporozoites, and determined the occurrence of blood infection by monitoring parasitemia.\nTo determine the adjuvant effect of α-GalCer on the duration of protection against malaria, parasitemia (i.e., the presence of the parasites in the blood) was monitored daily via microscopic inspection of thin blood smears in two separate experiments. In experiment 1, two groups of mice, one treated with α-GalCer and the other untreated, were immunized with 1×10^4 γ-spz, a dose that fails to confer protection against malaria 2 weeks after immunization. Two weeks later, all mice were challenged with 50 viable P. yoelii sporozoites, and the occurrence of blood infection was determined by monitoring parasitemia. In experiment 2, two groups of mice, one treated with α-GalCer and the other untreated, were immunized with 1×10^5 γ-spz, a dose that induces complete protection 2 weeks after immunization but not 4 weeks after. Four weeks later, these immunized mice, as well as naive controls were challenged with 50 live sporozoites, and the course of infection was determined as described above."}, "[11]": {"settings": "BALB/c mice, 2 μg α-GalCer, 1×10^4 γ-spz i.v."}, "[12]": {"settings": "BALB/c mice, i.v. 1 × 10^4 γ-spz or s.c. 1 × 10^7 p.f.u. AdPyCS, with or without α-GalCer, challenge with 50 viable P. yoelii sporozoites two weeks later"}}, "note": "“Also recorded” adds a separate entry of the source."}
{"smiles": "CCCCCCCCCCCCCCCCCCCCCC[C@@H](O)C(=O)N[C@@H](COC1OC(CO)C(O)C(O)C1OC1OC(CO)C(O)C(O)C1O)[C@H](O)[C@H](O)CCCCCCCCCCCCCC", "note": "(stereo partly drawn) [Galα1-2Galα1-1′Cer, (2S,3S,4R)-2-amino-1-O-(α-D-glucopyranosyl-(1-2)-α-D-galactopyranosyl)-N-[(R)-2-hydroxytetracosanoyl]-1,3,4-octadecanetriol]", "values": [{"measurement": "proliferation of Vα14 NKT cells, compared with α-GalCer", "setting": "Vα14 NKT cells", "result": "stimulate proliferation of Vα14 NKT cells in mice, although with lower efficiency"}]}
{"smiles": "CCCCCCCCCCCCCCCCCCCCCCCCCC(=O)N[C@@H](COC1OC(COC2OC(CO)C(O)C(O)C2O)C(O)C(O)C1O)[C@H](O)[C@H](O)CCCCCCCCCCCCCC", "note": "(stereo partly drawn) [Galα1-6Galα1-1′Cer, (2S,3S,4R)-2-amino-1—O-(α-D-galactopyranosyl-(1-6)-α-D-galactopyranosyl)-N-hexacosanoyl-1,3,4-octadecanetriol]", "values": [{"measurement": "proliferation of Vα14 NKT cells, compared with α-GalCer", "setting": "Vα14 NKT cells", "result": "stimulate proliferation of Vα14 NKT cells in mice, although with lower efficiency"}]}
{"smiles": "CCCCCCCCCCCCCCCCCCCCCC[C@@H](O)C(=O)N[C@@H](COC1OC(CO)C(O)C(OC2OC([C@H](O)CO)C(O)C2O)C1O)[C@H](O)[C@H](O)CCCCCCCCCCCCCC", "note": "(stereo partly drawn) [Galβ1-3Galα1-1′Cer, (2S,3S,4R)-2-amino-1-O-(β-D-galactofuranosyl-(1-4)-α-D-galactopyranosyl)-N-[(R)-2-hydroxytetracosanoyl]-1,3,4-octadecanetriol]", "values": [{"measurement": "proliferation of Vα14 NKT cells, compared with α-GalCer", "setting": "Vα14 NKT cells", "result": "stimulate proliferation of Vα14 NKT cells in mice, although with lower efficiency"}]}
{"smiles": "CCCCCCCCCCCCCCCCCCCCCCCCCC(=O)N[C@@H](CO[C@H]1O[C@H](CO)[C@H](O)[C@H](O)[C@H]1O)[C@H](O)[C@H](O)CCCCCCCCCCCCCC", "note": "[α-GalCer, (2S,3S,4R)-1—O-(α-D-galactopyranosyl)-2-(N-hexacosanoylamino)-1,3,4-octadecanetriol]", "values": [{"measurement": "titers of anti-sporozoite antibodies (IFA), α-GalCer vs no α-GalCer", "setting": "P. yoelii sporozoites [1]", "result": "identical"}, {"measurement": "IgE, IgG1, IgG2a or IgM isotype profiles of anti-CS antibodies, α-GalCer-treated vs untreated", "setting": "[2]", "result": "no significant differences"}, {"measurement": "titers of antibody against the CS protein (ELISA), α-GalCer vs no α-GalCer", "setting": "[2]", "result": "identical"}, {"measurement": "CD8+ T cell anti-influenza response", "setting": "[3]", "result": "significantly enhances"}, {"measurement": "mice bearing tumors cured", "setting": "B 16-bearing mice; 100 μg/kg KRN7000", "result": 60, "unit": "%"}, {"measurement": "antimetastatic activities vs OK432, Lentinan and Mitomycin C", "setting": "B 16-bearing mice; B 16-bearing mice", "result": "stronger antimetastatic activities"}, {"measurement": "toxicity in rodents", "setting": "[4]", "result": "does not induce toxicity"}, {"measurement": "toxicity in monkeys", "setting": "[5]", "result": "does not induce toxicity"}, {"measurement": "anti-malaria activity (inhibition of intra-hepatocytic stages), P. yoeli", "setting": "P. yoeli; mice", "result": "strong anti-malaria activity"}, {"measurement": "parasite development in the liver of mice lacking either IFN-γ or the IFN-γ receptor", "setting": "P. yoeli", "result": "unable to inhibit parasite development"}, {"measurement": "parasites in the liver, α-GalCer two days prior to challenge with live sporozoites", "setting": "P. yoeli", "result": "completely eliminates the parasites from the liver"}, {"measurement": "protection against malaria in mice lacking either CD1d or Vα14 NKT cells", "setting": "P. yoeli", "result": "failed to protect"}, {"measurement": "anti-malaria activity (inhibition of intra-hepatocytic stages), P. berghei", "setting": "P. berghei", "result": "strong anti-malaria activity"}, {"measurement": "liver enzyme activities", "setting": "[6]", "result": "transient elevation of liver enzyme activities"}, {"measurement": "complications in human trials", "setting": "[7]", "result": "without a notable complication"}, {"measurement": "level of HIV-specific CD8+ T cell response vs immunized without α-GalCer", "setting": "[8]", "result": "~3", "unit": "times"}, {"measurement": "parasite load in the livers, times smaller than with γ-spz alone", "setting": "P. yoelii sporozoites [9]; BALB/c mice, 2 μg α-GalCer with 1×10^4 γ-spz i.v., challenge 1×10^4 live sporozoites two weeks later", "result": 10, "unit": "times"}, {"measurement": "level of protective anti-malaria immunity, α-GalCer on the same day as γ-spz", "setting": "P. yoelii sporozoites [9]; [11]", "result": "highest level of protective anti-malaria immunity"}, {"measurement": "level of protective immunity, α-GalCer two days after γ-spz immunization", "setting": "P. yoelii sporozoites [9]; [11]", "result": "did not significantly enhance"}, {"measurement": "protective immunity, α-GalCer two days prior to γ-spz immunization", "setting": "P. yoelii sporozoites [9]; [11]", "result": "completely abolished; also recorded: almost completely abolishes"}, {"measurement": "protection augmented relative to control, AdPyCS", "setting": "P. yoelii sporozoites [9]; BALB/c mice, s.c. sub-optimal dose AdPyCS with α-GalCer same day", "result": "~10", "unit": "times"}, {"measurement": "protection enhanced, SIN(Mal)", "setting": "P. yoelii sporozoites [9]; BALB/c mice, s.c. sub-optimal dose SIN(Mal) with α-GalCer same day", "result": 3, "unit": "times"}, {"measurement": "γ-spz-induced protective immunity in CD1d-deficient mice", "setting": "P. yoelii sporozoites [9]; CD1d-deficient mice, BALB/c background, 1×10^4 γ-spz with α-GalCer", "result": "failed to enhance"}, {"measurement": "γ-spz-induced protective immunity in Jα281-deficient mice", "setting": "P. yoelii sporozoites [9]; Jα281-deficient mice (lack Vα14 NKT cells), 1×10^4 γ-spz with α-GalCer", "result": "failed to enhance"}, {"measurement": "α-GalCer-treated, sporozoite-immunized mice protected, experiment 1", "setting": "P. yoelii sporozoites [10]; 1×10^4 γ-spz, challenge with 50 viable sporozoites two weeks later", "result": "nine out of ten"}, {"measurement": "α-GalCer-treated, sporozoite-immunized mice protected, experiment 2", "setting": "P. yoelii sporozoites [10]; 1×10^5 γ-spz, challenge with 50 live sporozoites four weeks later", "result": "nine out of ten"}, {"measurement": "% protection (no parasitemia)", "setting": "P. yoelii sporozoites [10]; [12]", "result": 0, "unit": "%"}, {"measurement": "Number of mice protected/number challenged", "setting": "P. yoelii sporozoites [10]; [12]", "result": "0/30"}, {"measurement": "α-GalCer-treated, γ-spz-immunized mice protected", "setting": "P. yoelii sporozoites [10]; BALB/c, 1×10^4 γ-spz i.v., challenge 50 viable sporozoites two weeks later", "result": "28 out of 30"}, {"measurement": "protective effect of sub-optimal dose of AdPyCS with α-GalCer", "setting": "P. yoelii sporozoites [10]; BALB/c, 1×10^7 p.f.u. AdPyCS s.c., challenge 50 viable sporozoites", "result": "strongly enhanced"}, {"measurement": "protection by α-GalCer alone", "setting": "P. yoelii sporozoites [10]; BALB/c, no immunogen, challenge 50 viable sporozoites", "result": "failed to protect"}]}
{"smiles": "CCCCCCCCCCCCCCCCCCCCCCCCCC(=O)N[C@@H](CO[C@H]1O[C@H](CO)[C@@H](O)[C@H](O)[C@H]1O)[C@H](O)[C@H](O)CCCCCCCCCCCCCC", "note": "[α-GlcCer, (2S,3S,4R)-1—O-(α-D-glucopyranosyl)-N-hexacosanoyl-2-amino-1,3,4-octadecanetriol]", "values": [{"measurement": "proliferation of Vα14 NKT cells, compared with α-GalCer", "setting": "Vα14 NKT cells", "result": "stimulate proliferation of Vα14 NKT cells in mice, although with lower efficiency"}]}
